Measured values from publication PMC9664868, “Dephospho-Coenzyme A Kinase Is an Exploitable Drug Target against Plasmodium falciparum: Identification of Selective Inhibitors by High-Throughput Screening of a Large Chemical Compound Library” (Antimicrobial Agents and Chemotherapy, 2022).
Like-named read-outs stand apart in the source and are kept apart here.

Assays:
PfDPCK [1] = target: T1, PfDPCK (Plasmodium falciparum, UniProt Q8IL34); test: Kinetic analysis of recombinant PfDPCK (ADP Hunter Plus); type: biochemical
Protocol: (§1) PfDPCK and HsCOASY activity was measured by quantifying ADP produced in the reaction by a coupling assay using the ADP Hunter Plus assay kit (DiscoverX, USA) according to the manufacturer's instructions. Briefly, enzymatic reactions were carried out in a 20-μL mixture of assay buffer containing 15 mM HEPES, 20 mM NaCl, 1 mM EGTA, 0.02% Tween 20, 10 mM MgCl2, 0.1% bovine gamma globulin, 50 ng of recombinant PfDPCK or HsCOASY, 4 to 256 μM dephospho-CoA, and 5 to 300 μM ATP on a black microplate. All reactions were performed for 2 h, reagents A and B were added, and they were then reincubated for 60 min at 30°C. After reactions were terminated by addition of ADP Hunter Stop solution, the fluorescent signal was measured using SpectraMax Paradigm (Molecular Devices, CA, USA) at excitation and emission wavelengths of 530 and 590 nm, respectively. The kinetic parameters were calculated using the nonlinear regression function using the single saturating concentrations of the substrates by the GraphPad Prism software (GraphPad Software Inc., San Diego, CA). The experiments were repeated three times in triplicate using proteins purified from independent cultures. Kinetic values of enzymes are presented as the means ± standard errors (SEs).

HsCOASY = target: T2, HsCOASY (Homo sapiens, UniProt Q13057); test: Kinetic analysis of recombinant HsCOASY (ADP Hunter Plus); type: biochemical; settings: substrate of HsCOASY
T2 construct: His tag (pCold1 vector); made in house; host or cells: Escherichia coli BL21Star (DE3)
T2 sequence (Q13057 1-564): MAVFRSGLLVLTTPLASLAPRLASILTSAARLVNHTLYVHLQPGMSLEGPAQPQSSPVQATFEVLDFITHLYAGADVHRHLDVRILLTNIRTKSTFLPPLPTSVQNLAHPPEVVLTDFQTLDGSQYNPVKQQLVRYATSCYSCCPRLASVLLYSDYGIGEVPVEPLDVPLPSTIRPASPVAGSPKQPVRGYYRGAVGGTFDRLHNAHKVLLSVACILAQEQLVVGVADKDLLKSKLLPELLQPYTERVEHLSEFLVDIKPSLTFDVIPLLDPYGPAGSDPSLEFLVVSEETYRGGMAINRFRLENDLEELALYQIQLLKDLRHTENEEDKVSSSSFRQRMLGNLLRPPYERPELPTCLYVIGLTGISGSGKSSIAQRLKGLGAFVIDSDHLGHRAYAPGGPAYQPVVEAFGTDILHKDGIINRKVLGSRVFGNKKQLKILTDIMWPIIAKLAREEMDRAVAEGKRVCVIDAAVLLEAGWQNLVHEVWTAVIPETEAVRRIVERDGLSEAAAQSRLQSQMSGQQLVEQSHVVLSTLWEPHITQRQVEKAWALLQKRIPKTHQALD
Protocol: as §1

[2] = test system: P. falciparum drug-resistant Dd2 strain; test: Erythrocytic-stage parasite growth inhibition, diaphorase-coupled LDH assay, Dd2; type: cell-based, Plasmodium falciparum; settings: Plasmodium falciparum, DD2; Table S1; means ± SEM; read-out: IC50 (μM) Pf cell Dd2
Protocol: (§2) Selected hit compounds were also tested against erythrocytic-stage parasites of P. falciparum drug-sensitive 3D7 and drug-resistant Dd2 strains ([39]). For the phenotypic assay, parasite cultures were synchronized with 5% (wt/vol) D-sorbitol as previously described ([40]). A synchronized culture containing ring-stage parasites of 0.3% parasitemia was initiated with a culture volume of 25 μL/well on a 384-well plate. A series of diluted compounds (at final concentrations of 50, 10, 2, 0.4, and 0.08 μM) were used to calculate IC50 values. Mefloquine at 50 μM and atovaquone at 20 μM were used as no-growth control (100% inhibition). After 72 h of incubation, parasite growth was measured by diaphorase-coupled lactate dehydrogenase (LDH) assay as previously described ([41]). Absorbance at 650 nm was measured using SpectraMax Paradigm multimode microplate reader (Molecular Devices, San Jose, CA, USA). The IC50 values were calculated as described above.

PfDPCK [3] = target: T1, PfDPCK; test: Mechanism of PfDPCK inhibition by Lineweaver-Burk plot; type: biochemical
Protocol: In order to understand the mechanism of PfDPCK inhibition of the identified compounds, we independently selected compounds from 359 PfDPCK-specific inhibitor candidates (showing >40% inhibition at 10 μM against PfDPCK), based on the more stringent criteria of >80% inhibition at 10 μM against PfDPCK and <10% inhibition against HsCOASY, to yield 30 hits. The hits were prioritized using a multiparameter optimization (MPO) scoring model, developed by MMV (https://www.optibrium.com/downloads/scoring-profiles/mmv-antimalarial-scoring-profile/) based on calculated physicochemical properties, including molecular weight, logP, hydrogen bond donors and acceptors, rotatable bonds, and structural alerts ([20], [21]). We finally chose six representative compounds (A-15, A-33, and A-69, shown in Table S1, and other three compounds; A-126, A-127, and A-128) by manual inspection with “chemist eye” for chemical attractiveness (druglikeness). […] Furthermore, two compounds, A-33 and A-69, are considered to be pan-assay interference compounds (PAINS) (phenolic Mannich base) ([22]). We consequently focused on two commercially available compounds (A-15 and A-127) (Fig. 6A) and investigated their mechanism of inhibition. We differentiated the type of inhibition by Lineweaver-Burk plot with various concentrations of one substrate (dephospho-CoA or ATP), while the other substrate was given in saturating concentrations in kinetic studies (Fig. 5).
FIG 5 Lineweaver-Burk plots showing inhibition of two compounds, compound A-15 (A, B) and compound A-127 (C, D) on the PfDPCK activity. The enzymatic activities were determined with various concentrations of dephospho-CoA and 200 μM ATP (A, C) or various concentrations of ATP and 200 μM dephospho-CoA (B, D) in the presence of a range of concentrations of inhibitors. Data are shown in means ± SEMs of triplicate.
as §1

PfDPCK [4] = target: T1, PfDPCK; test: PfDPCK inhibition, enzyme-coupled fluorescence ADP detection assay (HTS and IC50 determination); type: biochemical
Protocol: High-throughput screening against recombinant PfDPCK was performed using the Drug Discovery Initiative (DDI) full library, available from The University of Tokyo, composed of approximately 210,000 compounds. The primary assay was performed on 1,536-well white plate format with a final volume of 2 μL/well, containing 10 μM test compounds using a Multidrop Combi reagent dispenser (Thermo Fisher Scientific, Waltham, MA). The reaction was conducted in the assay buffer described above with 100 μM ATP and 50 μM dephospho-CoA. The assay was carried out at room temperature for 4 h in a closed plastic container with wet tissues. The reaction was stopped, and produced ADP was quantified using an enzyme-coupled fluorescence ADP detection assay, using PHERAstar microplate reader (BMG Labtech, Offenburg, Germany) with excitation at 540 nm and emission at 590 nm, as previously described ([17]). The inhibition level was calculated as the percentage inhibition of DPCK activity with each compound compared to the activity with only dimethyl sulfoxide (DMSO) as control (no inhibition) and that with no enzyme as 100% inhibition. IC50 values of the hit compounds were determined under the same assay conditions for the screening: Z′ factor, signal-to-background ratio (S/B), signal-to-noise ratio (S/N), and coefficient of variation (CV) were calculated to estimate the quality of screening system as previously described ([18], [38]).
The primary hits were reassayed in quadruplicate (n = 4) as in the primary screening. We next tested the confirmed secondary hits to exclude false positives that inhibit coupled fluorescence assay, but not PfDPCK. After exclusion of false positives, all tertiary hits were tested against human HsCOASY in the counterassay to exclude compounds that inhibit both PfDPCK and HsCOASY. The compounds showing >10% inhibition against HsCOASY were excluded from further studies. The IC50 values of the hit compounds were determined under the same assay conditions described as above for the primary screening, with the serially diluted compounds at 20, 10, 2.5, 0.5, and 0.1 μM at final concentrations. The assay was conducted in quadruplicate for each dilution, and IC50 values were calculated using GraphPad Software (San Diego, California USA).

[5] = test system: P. falciparum drug-sensitive 3D7 strain; test: Erythrocytic-stage parasite growth inhibition, diaphorase-coupled LDH assay, 3D7; type: cell-based, Plasmodium falciparum; settings: Plasmodium falciparum, 3D7; for IC50: Table S1, means ± SEM, read-out: IC50 (μM) Pf cell 3D7
Protocol: as §2

HepG2 cell line = test: Cytotoxicity assay (Cell Counting Kit-8); type: cell-based, human; settings: Homo sapiens, HepG2; Table S1; means ± SEM; read-out: IC50 (μM) HepG2
Protocol: Cytotoxicity against human cells was evaluated using the human liver carcinoma HepG2 cell line. HepG2 cells were cultured in D-MED supplemented with 4 mM L-glutamine and 10% fetal bovine serum (FBS) in a 75-cm^2 flask (Violamo) at 37°C. For the cytotoxicity assay, HepG2 cells in semiconfluent state were detached from the flask by incubating the cells with 5 mL D-MEM containing 0.25% trypsin-EDTA. After detachment, HepG2 cells were resuspended in D-MEM-supplemented L-glutamine and FBS, and cell viability was evaluated by incubating cells with 0.4% Trypan blue on a hemocytometer. An approximately 50-μL suspension containing 3,000 cells was dispensed into each well on a 384-well clear-bottom plate using a Multidrop Combi dispenser. Compounds dissolved in DMSO had been dispensed into wells to yield final concentrations of 100, 20, 4, 0.8, and 0.2 μM before cells were added. After cells were added to the plates, they were cultured at 37°C under 5% CO2. After 48 h cultivation, 5 μL of Cell Counting Kit-8 (Dojindo, Japan) was added, and the plates were further incubated for 2 h to assess cell growth and survival.

[6] = substrate: CC(C)(COP(=O)(O)OP(=O)(O)OCC1OC(n2cnc3c(N)ncnc32)C(O)C1O)C(O)C(=O)NCCC(=O)NCCS; test: Kinetic analysis of recombinant HsCOASY (ADP Hunter Plus); type: biochemical, human; settings: other: substrate of HsCOASY; 30.0 °C
Protocol: as §1

[7] = substrate: CC(C)(COP(=O)(O)OP(=O)(O)OCC1OC(n2cnc3c(N)ncnc32)C(O)C1O)C(O)C(=O)NCCC(=O)NCCS; test: Kinetic analysis of recombinant PfDPCK (ADP Hunter Plus); type: biochemical, Plasmodium falciparum; settings: other: substrate of PfDPCK; 30.0 °C
Protocol: as §1

[8] = Table 2, PfDPCK inhibitor scaffolds Gr4, Gr5, Gr8, read-out: IC50

CC(C)(CO)[C@@H](O)C(=O)NCCC(=O)O [pantothenate]
specific activity (PfDPCK [1]; as a substrate of PfDPCK): < 0.01 µmol/min/mg

Nc1ncnc2c1ncn2[C@@H]1O[C@H](COP(=O)(O)OP(=O)(O)OP(=O)(O)O)[C@@H](O)[C@H]1O [ATP]
Km (PfDPCK [1]; substrate of PfDPCK): 88.1 ± 11 µM
Km (HsCOASY): 115 ± 13.1 µM

COc1cc(N2CCCC2)cc2ccc(-c3ccccn3)nc12 [Compound A-127]
IC50 [2]: < 10 µM
Ki (PfDPCK [3]; in respect of ATP, 200 μM dephospho-CoA): 8.99 µM
type of inhibition (PfDPCK [3]; in respect of dephospho-CoA and ATP, Lineweaver-Burk plot): uncompetitive or noncompetitive inhibition
Ki (PfDPCK [3]; in respect of dephospho-CoA, 200 μM ATP): 14.9 µM
IC50 (PfDPCK [4]; Table S1, means ± SEM, read-out: IC50 (μM) Pf DPCK): 5.01 ± 0.46 µM
IC50 [5]: < 2 µM
inhibition at 2 µM ([5]; at 2 μM, read-out: growth inhibition against 3D7): 80%

CCOc1ccc(-n2cc(-c3ccccc3)c3c(NCCN(C)C)ncnc32)cc1 [Compound A-17]
IC50 [2]: 2.7 ± 0.44 µM
IC50 (PfDPCK [4]; [8]): 2.15 ± 0.07 µM
IC50 [5]: 22.9 ± 1.87 µM
IC50 (HepG2 cell line): 8.45 ± 0.35 µM

Cc1cccc(-n2cc(-c3ccccc3)c3c(NCCOCCO)ncnc32)c1 [Compound A-42]
IC50 [2]: 49.7 ± 3.22 µM
IC50 (PfDPCK [4]; [8]): 6.14 ± 0.28 µM
IC50 [5]: 38.2 ± 2.91 µM
IC50 (HepG2 cell line): 63.2 ± 3.48 µM

B1: HsCOASY (Homo sapiens) (protein)
chain: T2 sequence (Q13057 1-564)
notes: His tag (pCold1 vector); made in house; host or cells: Escherichia coli BL21Star (DE3)
Km [6]: 85.35 ± 13.4 µM

B2: PfDPCK (Plasmodium falciparum 3D7) (protein)
chain: MFLKFFLDKCILCFLALGSIPIGYINRKNKFRKIENQKYALFSSIVMNSFLIYLNKFFGILGIFNFFLGNYLCLIGITGGIAVGKSTFCNFLKKKDVVVINADEITSKIYTKDSICYKKIVKHFGENILNNDKSINRTLLRKIVFNNEENVKYINKITHTYIILQIIKECLKYKFLYFKYNVAIEAPLLIETKLYLLTSPVILLKSSVRNQIKRILSRDKNCTYDTAMGIIKNQLPTDEKIKYADIIINNDGDILDLQMKCDVVYNKYLKNFFF
Km [7]: 105.3 ± 10.2 µM
